Legend:
[1] = test system: CT26 murine colorectal cancer tumors; test: Treatment of CT26 tumors in mice; format: in vivo, Balb/c mice; settings: two IP injections of 300 µM 500 µL on days 1 and 3; CT26 tumors
Experimental: For the treatment of CT26 tumors, 5 × 10^4 CT26 murine colorectal cancer cells (ATCC, CRL-2638) were injected subcutaneously (SQ) in 100 μL of growth medium into the right flank of female Balb/c mice ranging in age from 7 to 9 weeks (Envigo RMS, Inc.). […] The compounds were dissolved in DMSO as a stock solution and transferred to PBS (vehicle). The residual DMSO in the final solution injected into animals was less than 2%. Tumor volume and body weight were measured 3 times per week throughout the study. Measurements of tumors were performed using calipers, and the tumor volume (V) was calculated with the formula: V=0.52∙L∙W^2 where L is the length and W is the width of the measured tumor. Mice were removed from the study and euthanized when the tumor volume was greater than 2,000 mm^3.

[2] = Stability in mouse plasma; settings: BALB/c mouse plasma, 200 µM
Experimental: Plasma proteins were precipitated by methanol (1:5 volume ratio of plasma to methanol) and centrifuged for 10 min at […]. The supernatant was collected and analyzed by HPLC using a Zorbax SB-C18 4.6 × 250 mm, 5 μm column with a gradient from 20% to 80% acetonitrile in water containing 0.05% TFA. Chromatograms were recorded at 220 nm, 280 nm and 325 nm.

human STING WT protein = biological target: T1, human STING WT protein (Homo sapiens, UniProt Q86WV6); test: HTRF competitive binding to STING protein (human STING WT binding kit); settings: HTRF competitive assay, 6His-tagged human STING WT, d2-labelled ligand, 3 h RT; EC50 in method, IC50 in Fig. S1; read-out: binding affinity to STING protein
T1 construct: purchased Cisbio
T1 sequence (Q86WV6 whole entry): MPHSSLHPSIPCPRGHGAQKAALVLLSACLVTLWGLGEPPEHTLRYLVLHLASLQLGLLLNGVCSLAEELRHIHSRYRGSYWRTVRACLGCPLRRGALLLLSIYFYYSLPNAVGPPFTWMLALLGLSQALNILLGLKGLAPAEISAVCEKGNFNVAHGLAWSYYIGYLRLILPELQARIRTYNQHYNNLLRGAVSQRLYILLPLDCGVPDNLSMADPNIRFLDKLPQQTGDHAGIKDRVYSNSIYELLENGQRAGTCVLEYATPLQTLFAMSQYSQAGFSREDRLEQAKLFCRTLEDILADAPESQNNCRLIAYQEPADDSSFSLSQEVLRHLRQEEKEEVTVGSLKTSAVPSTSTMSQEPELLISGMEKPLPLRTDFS
Experimental: STING WT ligand d2 reagent was premixed with 6His Tb antibodies, and it was added to each well and the plate was incubated for 3 h at RT. Fluorescence intensities at 616 nm and 665 nm excited at […] were recorded on the SpectraMax ID5 plate reader (Molecular Devices). The homogeneous time resolved fluorescence (HTRF) ratio was calculated to establish the binding of each agent to the STING protein and to calculate EC50.

[3] = test system: THP-1-Blue-ISG cells polarized into M2-type macrophages; test: Activation of IFN (IRF-SEAP reporter) in M2-polarized macrophages; format: cell-based, human; settings: THP1-Blue-ISG cells polarized by PMA, IL-4/IL-13, 2 h in DMEM without FBS pH 6.9, then 48 h, QUANTI-Blue, absorbance 655 nm, read-out: EC50 of activation of IRF signaling
Experimental: THP-1-Blue™-ISG cells (Invivogen) expressing an interferon (IFN) regulatory factor (IRF)-inducible secreted embryonic alkaline phosphatase (SEAP) reporter construct were used. Cells were maintained in RPMI growth medium supplemented with L-glutamine, sodium pyruvate, 10% fetal bovine serum (FBS), normocin and ciprofloxacin hydrochloride in a humidified atmosphere of 5% CO2 and 95% air at 37°C. Cells were seeded in 96-well plates at a density of 75,000 cells/well. To generate M2 polarized macrophages, cells were treated first with 185 ng/mL phorbol 12-myristate 13-acetate (PMA) for 6 h and then 20 ng/mL of interleukin 4 (IL-4) and 20 ng/mL of interleukin 13 (IL-13) (both from PeproTech) were added for another 16 h of treatment. […] After a 2-h incubation, an equal volume of RPMI supplemented with 20% heat-inactivated FBS was added, and cells were incubated for another 48 h. SEAP activity was accessed using the QUANTI-Blue™ Solution (Invivogen) to evaluate type I interferon protein levels: 150 μL of the colorimetric reagent was added to 50 μL of cell supernatant for 30 min, 37°C, followed by absorption measurement at 655 nm.

CT26 tumor = test: Biodistribution and tumor targeting by ex vivo NIR fluorescence imaging; format: in vivo, Balb/c mice; settings: single RO injection 50 µM 100 µL; ex vivo fluorescence at 1-120 h
Experimental: For biodistribution studies 5 × 10^4 of CT26 cancer cells were injected SQ in 100 µL of growth medium into the right flank of female Balb/c mice and tumors were grown until they reached 150–250 mm^3 in volume. Then a single retro-orbital (RO) injection of 50 μM 100 μL of 2(ICG-pHLIP)-dMSA was performed. Animals were euthanized at 5 min, 1, 4, 24, 48, 72, and 120 h post-injection, blood was collected in K2 EDTA vacutainer blood collection tubes (BD), and necropsy was performed immediately after animals were euthanized. […]
The in vivo and ex vivo bright field and near-infrared fluorescent imaging employed a Stryker 1588 AIM endoscopic system with L10 AIM Light Source (808 nm excitation and collection of light in the range of approximately of 815–850 nm), and a 1588 AIM Camera using a 10 mm scope. […] The ex vivo fluorescence imaging of tissue specimens was performed using three different laser settings and six different gain settings. The digital fluorescence images were split into RGB channels, with the green channel being analyzed using ImageJ program to calculate the average fluorescence intensity. All average intensities were adjusted based on their capture settings and using calibration curves to present fluorescence intensities corresponding to the unified (the same) settings.

[4] = Blood clearance (PK) by whole blood fluorescence imaging; format: in vivo, Balb/c mice; settings: single RO injection of 2(ICG-pHLIP)-dMSA 50 µM 100 µL, CT26 tumor-bearing female Balb/c mice; whole blood fluorescence, exponential fit
Experimental: For biodistribution studies 5 × 10^4 of CT26 cancer cells were injected SQ in 100 µL of growth medium into the right flank of female Balb/c mice and tumors were grown until they reached 150–250 mm^3 in volume. Then a single retro-orbital (RO) injection of 50 μM 100 μL of 2(ICG-pHLIP)-dMSA was performed. Animals were euthanized at 5 min, 1, 4, 24, 48, 72, and 120 h post-injection, blood was collected in K2 EDTA vacutainer blood collection tubes (BD), and necropsy was performed immediately after animals were euthanized. Blood, tumors and major organs (kidney, liver, spleen, pancreas, lung, heart, large and small intestines, bone, muscle, brain) were collected, and imaged ex vivo immediately after necropsy. Blood (200 µL) was imaged in 96-well plates with black bottom and walls.
The in vivo and ex vivo bright field and near-infrared fluorescent imaging employed a Stryker 1588 AIM endoscopic system with L10 AIM Light Source (808 nm excitation and collection of light in the range of approximately of 815–850 nm), and a 1588 AIM Camera using a 10 mm scope. The lens was kept at a fixed distance from the surface of the organs, within an enclosed (light-protected) area. Calibration curves converting laser and gain settings were established by imaging of pHLIP-ICG solution at different concentrations. The ex vivo fluorescence imaging of tissue specimens was performed using three different laser settings and six different gain settings. The digital fluorescence images were split into RGB channels, with the green channel being analyzed using ImageJ program to calculate the average fluorescence intensity. All average intensities were adjusted based on their capture settings and using calibration curves to present fluorescence intensities corresponding to the unified (the same) settings.

[5] = Stability in human plasma; format: in vitro ADME; settings: single donor human plasma, 200 µM, 0-24 h at 37°C, methanol precipitation, HPLC C18, UV 220/280/325 nm
Experimental: Plasma proteins were precipitated by methanol (1:5 volume ratio of plasma to methanol) and centrifuged for 10 min at 13.4 rpm. The supernatant was collected and analyzed by HPLC using a Zorbax SB-C18 4.6 × 250 mm, 5 μm column with a gradient from 20% to 80% acetonitrile in water containing 0.05% TFA. Chromatograms were recorded at 220 nm, 280 nm and 325 nm.

[6] = Self-immolation kinetics of the S-S linker and payload release after DTT, by HPLC; format: physicochemical; settings: DTT in 50 mM phosphate buffer, 150 mM NaCl, pH 7.4; HPLC at 0.5-48 h, UV 220/280/325 nm
Experimental: Figure S3. Kinetics of self-immolation of 2pHLIP-dMSA. […] Starting 2pHLIP-dMSA is shown on A.
Figure S4. Self-immolation kinetics of pHLIP-mMSA. HPLC chromatograms recorded at 280 nm and 325 nm for pHLIP-mMSA treated with DTT dissolved in 50 mM phosphate buffer containing 150 mM NaCl pH 7.4 at different time points ([…]) after addition of DTT (A-G) and the retention time for mMSA (H) and pHLIP (I) are shown. Starting pHLIP-mMSA is shown on A.

COc1cc2cc(C(=O)CCC(=O)O)sc2cc1OC [mMSA, reference compound]
therapeutic activity on animals (in words) [1]: did not demonstrate any activity | time within which the cargo released from pHLIP underwent degradation in mouse plasma ([2]; 37°C, HPLC C18, UV): ≤ 24 h | IC50 (human STING WT protein): 7.5 µM | EC50 [3]: 2.2 µM

AKDQDNPWRAYLDLLFPTDTLLLDLLWCG [2(ICG-pHLIP)-dMSA, fluorescent version of 2pHLIP-dMSA with ICG dye on a lysine near the N-terminus of each pHLIP]
accumulation in the tumor (in words) (CT26 tumor): significant accumulation of the agent in the tumor from 1 h and up to 48 h | organ and tissue clearances (in words) (CT26 tumor): slow | blood clearance half-life [4]: 32.2 h

ADQDNPWRAYLDLLFPTDTLLLDLLWCG [pHLIP-mMSA, single Var3 pHLIP peptide linked with a single monomeric STINGa mMSA via S-S cleavable self-immolating linker]
stability in human plasma (in words) [5]: very high | stability in mouse plasma (in words) ([2]; 0-24 h at 37°C, methanol precipitation, HPLC C18, UV 220/280/325 nm): low | time to completion of linker self-immolation and release of payload in its original form [6]: ≤ 24 h
